Consider 21 molecules from PubChem BioAssay (NCI).

What all share (experiment): NCI tumour cell line growth inhibition, 48 h
Experiment [1] relates to SN12C renal.
Experiment [2] relates to KM12 colon.
For experiment [3], the system named is HOP-62 NSCLC.
For experiment [4], the system named is LXFL 529 NSCLC.
In experiment [5] the test system is OVCAR-4 ovarian.
For experiment [6], the system named is HT29 colon.
For experiment [7], the system named is M19-MEL melanoma.
The test system of experiment [8] is UACC-257 melanoma.
Experiment [9] has as its system UACC-62 melanoma.
The subject of experiment [10] is SF-295 CNS.

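1) Cells in 96-well plates. 2) Compound, 48 h, 5 concentrations. 3) Linear interpolation between surrounding doses. 4) Unreached endpoint = highest concentration. GI50 is the concentration that inhibits growth by half. TGI denotes the concentration required for complete inhibition of growth.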

Regarding `COc1cc(CC(=O)O)c([N+](=O)[O-])cc1OC`, the TGI in [1], in experiment [2], in experiment [3], in experiment [4], in [5] and in [6] was above 100 µM throughout. Further, the TGI in experiment [7], in experiment [8], in experiment [9] and in experiment [10] was above 100 µM throughout.

With `Cc1cc(C)c(/C=N/NS(=O)(=O)c2ccccc2)c(C)c1`, the TGI in [1], in [2], in experiment [3], in [4], in experiment [5] and in [6] was above 100 µM each time. The TGI in experiment [7], in experiment [8], in experiment [9] and in [10] was above 100 µM throughout.

With `Fc1ccc(N=C2C=CC(=Nc3ccc(F)cc3)c3ccccc32)cc1`, the TGI in [1], in experiment [3], in experiment [4], in experiment [6], in experiment [7] and in [8] was above 100 µM each time. The TGI in experiment [9] and in experiment [10] was above 100 µM each time.

Take `Clc1ccccc1C1SCc2nc3ccccc3n21` (configuration not stated): the TGI in experiment [1] was 51.8 µM; in [2] it was above 100 µM; in experiment [3], 64.6 µM; in [4] it was above 100 µM; in [5], above 100 µM; in experiment [6], above 100 µM. Further, the TGI in experiment [7] and in experiment [10] was above 100 µM in each case.

Consider `CCc1ncc(CO)n1Cc1cccc2ccccc12`, for which the TGI in experiment [1], in experiment [2], in [3], in experiment [5], in [6] and in experiment [8] was above 100 µM throughout. Further, the TGI in experiment [9] and in [10] was above 100 µM throughout.

As to `O=C(Cc1nc2ccccc2o1)C(=O)Nc1ccc(Cl)cc1Cl`, the TGI in experiment [1], in [3], in [4], in [5], in [6] and in experiment [7] was above 100 µM throughout. Moreover, the TGI in [8], in experiment [9] and in experiment [10] was above 100 µM in each case.

As for `Nc1n[nH]c2ccc([C@@H]3Nc4ccc5cn[nH]c5c4[C@H]4C5CCC(C5)[C@@H]34)cc12` (some centres not stated), the GI50 was 747 nM in experiment [1]; 470 nM in [2]; 485 nM in [3]; 2630 nM in experiment [5]; 382 nM in experiment [6]; 12500 nM in experiment [8]. Further, the GI50 is 389 nM in experiment [9] and 277 nM in experiment [10]. For the same molecule, the TGI is above 100 µM in experiment [1]; 28 µM in [2]; above 70 µM in [3]; above 100 µM in experiment [5]; above 100 µM in experiment [6]; above 100 µM in [8]. Besides, the TGI in [9] is 34.3 µM; in experiment [10] it was 13.2 µM.

For the molecule `CC(=O)ON=C1C=CC(=C(C#N)c2ccccc2)C=C1`, the GI50 in experiment [1] was 2490 nM; in [2], 357 nM; in [3], 1630 nM; in experiment [5], 5510 nM; in [6], 3030 nM; in experiment [8] it was 2320 nM. Further, the values for the GI50 in experiment [9] and in experiment [10] were 3780 nM and 1830 nM, respectively. Moreover, the TGI stood at 20.9 µM in [1]; 1.71 µM in experiment [2]; 9.16 µM in experiment [3]; 22 µM in experiment [5]; 12.9 µM in experiment [6]; 18.3 µM in experiment [8]. Also, the values for the TGI in experiment [9] and in [10] were 25.7 µM and 12.7 µM, respectively.

As to `CCN(CC)CC(O)c1cc(-c2ccc(Cl)cc2)nc2c(C)c(Cl)ccc12` (configuration not stated), the GI50 in experiment [1] was 1500 nM; in experiment [2], 1720 nM; in experiment [3], 1570 nM; in [5], 1900 nM; in [6], 1550 nM; in experiment [8], 2120 nM. Moreover, the GI50 was 1840 nM in [9] and 1860 nM in experiment [10]. Also, the TGI in [1] was 3.22 µM; in [2], 3.14 µM; in experiment [3], 2.96 µM; in experiment [5], 3.35 µM; in experiment [6], 2.94 µM; in experiment [8], 3.81 µM. The values for the TGI in [9] and in experiment [10] were 3.39 µM and 3.5 µM, respectively.

For `O=C(/C=C/C=C/c1ccc2c(c1)OCO2)N/N=C\c1ccc(O)cc1O`, the GI50 in experiment [1] is 2980 nM; in experiment [2], 2920 nM; in [3], 1610 nM; in experiment [5], 459 nM; in experiment [6], 3780 nM; in [8], 3060 nM. Besides, the GI50 was 1630 nM in [9] and 925 nM in [10]. The TGI in experiment [1] turned out to be 16.2 µM; in experiment [2] it was 20.6 µM; in experiment [3] it was 15.7 µM; in experiment [5], 9.82 µM; in experiment [6], 26.2 µM; in experiment [8], 15.9 µM. Further, the figures for the TGI in [9] and in experiment [10] were 7.08 µM and 12.9 µM, respectively.

Regarding `COc1ccc(/C=C/C(=O)/C=C(O)/C=C/c2ccc(OC)c(OC)c2)cc1OC`, the GI50 in [1] is 3500 nM; in experiment [2] it was 2840 nM; in [3], 9230 nM; in [5] it was 27600 nM; in experiment [6], 3640 nM; in [8], 33900 nM. Moreover, the GI50 in [9] was 10800 nM; in experiment [10], 6360 nM. The TGI in experiment [1] is 90.9 µM; in [2], above 100 µM; in experiment [3], 49.2 µM; in experiment [5] it was above 100 µM; in experiment [6], 22.3 µM; in [8] it was 64.8 µM. For the same molecule, the results for the TGI in experiment [9] and in experiment [10] were 38.3 µM and above 100 µM, respectively.

`C[C@]12CC[C@@H]3c4ccc(OC(=O)N(CCCl)CCCl)cc4CC[C@H]3[C@@H]1CC[C@@H]2OP(=O)(O)O`: the GI50 was 17200 nM in [1]; 40300 nM in experiment [2]; 63000 nM in [3]; above 58100 nM in [5]; 33700 nM in [6]; 44500 nM in experiment [8]. Besides, the GI50 was 22900 nM in [9] and 12500 nM in experiment [10]. In addition, the TGI in [1] was 40.1 µM; in experiment [2], above 100 µM; in experiment [3] it was above 100 µM; in [5], above 100 µM; in experiment [6], above 100 µM; in experiment [8] it was above 80.6 µM. The figures for the TGI in experiment [9] and in experiment [10] were above 72.5 µM and 32.5 µM, respectively.

With `O=C(CC1(O)C(=O)Nc2ccccc21)c1ccccc1O` (configuration not stated), the TGI in [1], in [3], in experiment [4], in experiment [5], in experiment [6] and in [7] was above 100 µM throughout. In addition, the TGI in [8], in experiment [9] and in [10] was above 100 µM in each case.

As to `COc1cc(C(=O)NN=C2c3ccccc3-c3ccccc32)cc(OC)c1OC`, the GI50 in [1] was 4480 nM; in experiment [2] it was 2150 nM; in experiment [3], 5150 nM; in experiment [5] it was 17500 nM; in experiment [6], 2320 nM; in [8] it was 3330 nM. The GI50 was 3090 nM in experiment [9] and 1990 nM in experiment [10]. The TGI in [1] is 41.2 µM; in experiment [2], above 100 µM; in [3], 35.9 µM; in experiment [5], above 100 µM; in [6], 56.6 µM; in [8], 34.2 µM. Also, the values for the TGI in [9] and in experiment [10] were 24.8 µM and 7.13 µM, respectively.

Consider `C=CC(=O)N1CCC[C@@H](n2nc(-c3ccc(Oc4ccccc4)cc3)c3c(N)ncnc32)C1`, for which the GI50 in experiment [1] is above 4690 nM; in [2] it was above 8920 nM; in [3], above 10000 nM; in experiment [5], above 10000 nM; in experiment [6], above 7230 nM; in experiment [8], above 10000 nM. The figures for the GI50 in experiment [9] and in experiment [10] were above 4220 nM and above 9420 nM, respectively. The TGI in [1], in experiment [2], in experiment [3], in experiment [5], in [6] and in [8] was above 10 µM each time. Further, the TGI in [9] and in experiment [10] was above 10 µM in each case.

`O=C(N/N=C/c1ccncc1)c1ccc(F)cc1`: the GI50 in [1], in experiment [2], in experiment [3], in experiment [5], in experiment [6] and in experiment [8] was above 40000 nM in each case. For the same molecule, the GI50 in experiment [9] and in [10] was above 40000 nM throughout. For the same molecule, the TGI in experiment [1], in experiment [2], in experiment [3], in experiment [5], in [6] and in [8] was above 40 µM each time. Besides, the TGI in experiment [9] and in [10] was above 40 µM in each case.

In the case of `Fc1ccc(Nc2nc3nonc3nc2Nc2ccc(I)cc2)cc1`, the GI50 in experiment [1] is 260 nM; in [2], 332 nM; in experiment [3] it was 344 nM; in experiment [5], 283 nM; in experiment [6], 303 nM; in experiment [8], 207 nM. The GI50 in experiment [9] was 142 nM; in experiment [10], 214 nM. Further, the TGI in experiment [1] was 11.2 µM; in experiment [2], 11.4 µM; in experiment [3], 1.92 µM; in experiment [5], 64.5 µM; in experiment [6] it was 10.3 µM; in experiment [8] it was 0.756 µM. Also, the TGI in [9] came to 2.16 µM; in [10], 0.792 µM.

For `COC(=O)c1c2c(c(C)[n+]([O-])c1C)C(=O)C(NCc1ccc(O)cc1)=CC2=O`, the GI50 in [1] was 1230 nM; in experiment [2] it was 1700 nM; in experiment [3], 1960 nM; in [5] it was 1030 nM; in experiment [6], 715 nM; in experiment [8], 556 nM. Further, the figures for the GI50 in [9] and in [10] were 1360 nM and 1670 nM, respectively. In addition, the TGI is 2.56 µM in [1]; 4.1 µM in experiment [2]; 4.57 µM in experiment [3]; 2.23 µM in experiment [5]; 4.84 µM in experiment [6]; 1.97 µM in experiment [8]. The values for the TGI in experiment [9] and in experiment [10] were 2.97 µM and 3.17 µM, respectively.

Turning to `Cc1cc(-c2cc(OC(=O)c3ccccc3)ccc2Cl)cc2nnc(Nc3ccc(OCCN4CCCC4)cc3)nc12`, the GI50 in experiment [1] is 1490 nM; in [2] it was 1840 nM; in [3], 1550 nM; in [5] it was 1650 nM; in [6] it was 1610 nM; in experiment [8] it was 1620 nM. The figures for the GI50 in experiment [9] and in experiment [10] were 1710 nM and 1450 nM, respectively. In addition, the TGI stood at 3.1 µM in [1]; 3.42 µM in experiment [2]; 3.27 µM in [3]; 3.16 µM in [5]; 3.04 µM in experiment [6]; 3.14 µM in experiment [8]. Also, the TGI in experiment [9] is 3.36 µM; in [10], 2.79 µM.

For `COc1ncc(-c2ccc3nccc(C#CCCCCC(=O)NO)c3c2)cc1NS(=O)(=O)c1ccc(F)cc1F`, the TGI in experiment [1] was 17.5 µM; in [2] it was 12.1 µM; in experiment [3], 10 µM; in experiment [5] it was 14.1 µM; in [6] it was 10.5 µM; in [8], 1.44 µM. Also, the TGI in [10] came to 2.03 µM. The GI50 in experiment [2] was 180 nM; in experiment [3], 125 nM; in [5], 1720 nM; in experiment [6], 55 nM; in experiment [8], 198 nM; in [9], below 19.5 nM. In addition, the GI50 in experiment [10] is 70.1 nM.

For the molecule `CCOC(=O)C(=O)C(C#N)c1ccc(Cl)cc1` (configuration not stated), the TGI in [1], in experiment [3], in [4], in experiment [5], in experiment [6] and in experiment [7] was above 100 µM each time. Moreover, the TGI in experiment [8], in [9] and in experiment [10] was above 100 µM in each case.
